What all share (assay type): physicochemical
A short description of series [1]: Antioxidant activity assessed as inhibition of superoxide-induced NBT reduction at 100 uM measured during 2 mins by spectrophotometric analysis.
Series [2] is described as follows: Antioxidant activity assessed as inhibition of hydrogen peroxide-induced lucigenin oxidation at 1000 uM by chemiluminescence-based assay.
Series [3] can be described thus: Antioxidant activity assessed as inhibition of HOCl-induced oxidation of non-fluorescent DHR to fluorescent rhodamine-123 by fluorescence-based assay.
A short description of series [4]: Antioxidant activity assessed as inhibition of singlet oxygen-induced oxidation of DHR to fluorescent rhodamine-123 measured after 30 mins by fluorescence microplate screening assay. To be noted: for inhibition (INH): 0.5 h.
Series [5] in a line: Antioxidant activity assessed as inhibition of nitric oxide-induced oxidation of DAF-2 to DAF-2T measured after 30 mins by fluorimetric analysis.
Series [6] can be described thus: Antioxidant activity assessed as inhibition of peroxynitrite-induced oxidation of DHR to rhodamine-123 measured after 2 mins by fluorimetric analysis.
The nature of series [7]: Antioxidant activity assessed as inhibition of peroxynitrite-induced oxidation of DHR to rhodamine-123 measured after 2 mins in presence of NaHCO3 by fluorimetric analysis.
Series [8] in a line: Antioxidant activity assessed as inhibition of superoxide-induced NBT reduction measured during 2 mins by spectrophotometric analysis.
Series [9] is described as follows: Antioxidant activity assessed as inhibition of peroxynitrite-induced oxidation of DHR to rhodamine-123 at 5 uM measured after 2 mins in presence of NaHCO3 by fluorimetric analysis.
Series [10] in a line: Antioxidant activity assessed as inhibition of peroxyl radical-induced oxidation of fluorescein measured as trolox equivalent by ORAC assay.

For the compound `COc1ccc2c(=O)c(O)c(/C=C/c3ccc(O)c(O)c3)oc2c1OC`, the entries for the “inhibition (INH)” value in series [1], in series [2] and in series [4] were 49%, “Not Active” and “Dose-dependent effect”, respectively. The IC50 (usually the concentration that inhibits the measured activity by half) in [3] was found to be 820 nM; in series [4] it was 1200 nM; in [5] it was 830 nM; in series [6], 570 nM; in series [7], 1300 nM.
Regarding `COc1ccc(-c2oc3c(O)c(O)ccc3c(=O)c2O)cc1OC`, the IC50 in series [8] is 21 µM; in series [3], 6300 nM; in series [4] it was 2400 nM; in series [5], 55 nM; in series [6], 710 nM; in series [7] it was 2500 nM. Moreover, the “inhibition (INH)” value in [2] is on record as “Not Active”; in series [4] it was “Dose-dependent effect”.
With `O=c1c(O)c(/C=C/c2ccc(O)c(O)c2)oc2c(O)c(O)ccc12`, the IC50 in series [8] turned out to be 30 µM; in series [3], 1420 nM; in series [4], 1000 nM; in series [5] it was 670 nM; in [6], 290 nM; in series [7] it was 980 nM. For the same compound, the “inhibition (INH)” value in series [2] is given as “Not Active”; in series [4], “Dose-dependent effect”.
With `COc1ccc(/C=C/c2oc3c(O)c(O)ccc3c(=O)c2O)cc1OC`, the IC50 in [8] amounted to 35 µM; in series [3] it was 910 nM; in [4], 1000 nM; in series [5] it was 1000 nM; in [6], 570 nM. The “inhibition (INH)” value in [2] was “Not Active”; in series [4], “Dose-dependent effect”; in [9] it was “Not Active”.
Consider `O=c1c(O)c(-c2ccc(O)c(O)c2)oc2c(O)c(O)ccc12`, for which the IC50 in [8] came out at 19 µM; in [3], 2400 nM; in series [4] it was 4200 nM; in series [5] it was 120 nM; in series [6], 910 nM; in series [7], 930 nM. Also, the “inhibition (INH)” value in [2] is given as “Not Active”; in series [4], “Dose-dependent effect”.
For the compound `COc1ccc2c(=O)c(O)c(-c3ccc(O)c(O)c3)oc2c1OC`, the IC50 stood at 58 µM in [8]; 3300 nM in series [3]; 1300 nM in series [4]; 58 nM in series [5]; 590 nM in series [6]; 1030 nM in series [7]. In addition, the results for the “inhibition (INH)” value in series [2] and in [4] were “Not Active” and “Dose-dependent effect”, respectively.
Regarding `O=c1c(O)c(-c2ccc(O)c(O)c2)oc2cc(O)cc(O)c12` [QUERCETIN], the IC50 was determined as 67 µM in [8], 800 nM in [3], 760 nM in series [6] and 1100 nM in series [7]. For the same compound, in series [2], the “inhibition (INH)” value is “Not Active”. In addition, in series [10], the Activity stood at 0.49 uMequiv/uM.

For the origin of these results see ChEMBL document CHEMBL3822436, “New polyhydroxylated flavon-3-ols and 3-hydroxy-2-styrylchromones: synthesis and ROS/RNS scavenging activities” (Eur J Med Chem, 2016).
